Source: patent US20090269281A1, “Calcium/Calmodulin-Dependent Protein Kinase Kinase as a Control Point for Cardiac Hypertrophy” (University of North Texas Health Science Center at Fort …, priority 2007, published 2009)
“Also recorded” adds a separate entry of the source.

How the values were obtained:
UIIR = UIIR expression in cardiomyocytes treated with hypertrophic agonists (RT-PCR, western blot); format: cell-based, rat; conditions: for UIIR mRNA expression: 10 μM PE or 100 nM AngII for 24 hours, RT-PCR; for UIIR protein expression: PE or AngII, western blot
Description: Cardiomyocytes were cultured in medium containing 0.2% FBS and either PE (10 μM) or AngII (100 nM) for 48 hours. Total RNA was isolated and reverse transcribed. cDNA was used as template to amplify UIIR. […] Cardiomyocytes were cultured in medium containing 0.2% FBS and either PE (10 μM) or AngII (100 nM) for 48 hours. Total protein was isolated and UIIR detected by western blot.
Expression of UIIR in myocytes treated with hypertrophic agonists. In order to validate the array data, we designed PCR primers to amplify UIIR. Cardiomyocyte cultures were treated with 10 μM PE or 100 nM AngII for 24 hours and total RNA was extracted following the Trizol protocol (Invitrogen). Total RNA was then used for template for reverse transcription. The cDNA generated from the RT reaction was then used as template to amplify UIIR and GAPDH as control.
To this end, we stimulated cardiomyocyte cultures with AngII and PE as before and isolated total protein. The total protein was resolved by PAGE (12% acrylamide), transferred to nitrocellulose, and blotted for UIIR using a specific antibody.

[1] = system: ANF, SkA and MEF2 reporters; assay: UII-stimulated ANF, SkA and MEF2 luciferase reporter assay in cardiomyocytes; format: cell-based, rat; conditions: AdUIIR-infected cardiomyocytes; inhibitor 1 h prior to UII 100 nM; STO-609 250 ng/mL, SB203580 10 μM, U0126 10 μM, AKTi 5 μM
Source text: (§1) Cell Culture and Treatments. […] Plasmids and Adenoviral Constructs.
Transient Transfection and Luciferase Assay.

[2] = system: HDAC5/14-3-3β association; assay: Immunoprecipitation of 14-3-3β and detection of bound HDAC5 in cardiomyocytes; format: cell-based, rat; conditions: AdUIIR-infected cardiomyocytes; inhibitor 1 h prior to UII, 60 min
Description: as §1
For immunoprecipitation studies, Cardiomyocytes were cultured in 100-mm as described in the previous section. 24 h post-plating, cells were treated with UII and various pharmacological inhibitors as indictated. Following treatment, 14-3-3β was immunoprecipitated from whole cell lysate using a commercially available antibody (Abcam) and a protein G immunoprecipitation kit (IP50 Kit, Sigma, following manufacturer's protocol). HDAC5 was detected using a commercially-available antibody (Cell Signaling Technologies, Inc.).
UII stimulation induces association of HDAC5 with 14-3-3β in a CaMKK dependent manner. The activity of MEF2 is controlled, in part, by its association with class II HDACs in the nucleus. Class II HDACs repress the activity of MEF2-sensitive promoters by local deacetylation of nucleosomal histones causing the condensation of chromatin. The repressive influence of HDACs on MEF2 can be relieved by CaMK-dependent phosphorylation of HDACs, which results in their dissociation from MEF2. The dissociation of HDACs from MEF2 is accompanied by 14-3-3-mediated nuclear export of the HDACs. We have shown that UII stimulates the activity of MEF2. Next, to determine whether UII stimulates HDAC5 association with 14-3-3β, AdUIIR-infected cardiomyocytes were treated with UII for various times up to 60 min, and 14-3-3β was pulled down from the whole cell lysate by using an antibody specific for 14-3-3β and protein G agarose. HDAC5 was detected using a specific antibody.

[3] = system: ANF, SkA and MEF2 reporters; conditions: cardiomyocytes co-transfected with CaMKI; SB203580 10 μM or U0126 10 μM
Description: Cell Culture and Treatments. Cardiomyocytes were isolated from 2-4 day old Sprague-Dawley rats using the neonatal cardiomyocyte isolation system (Worthington Biolabs) based on a previously described protocol (45). Cells were plated in medium 199 supplemented with 10% fetal bovine serum (FBS, Atlanta Biologicals) and gentamycin (Fisher). Cells were maintained in medium 199 supplemented with 1.0% FBS and gentamycin. Prior to any treatment, cardiomyocyte cultures were incubated in medium 199 containing 0.2% serum for 24 hours. […] Cells were incubated in medium 199 containing 0.2% FBS prior to stimulation with the indicated reagents for reporter assays, RT-PCR, western blotting and immunoprecipitation.
Transient Transfection and Luciferase Assay. For transfections, cardiomyocytes were cultured in 12-well tissue culture plates as described. Once cultures were incubated in medium 199 with 0.2% serum for 24 hours, cultures were either infected with AdUIIR as described or were just transfected. […] Cardiomyocyte cultures were harvested 24-72 hours post treatment (per sample) and luciferase activity was determined by luminometry (Model TD 20/20 Luminometer, Turner Designs, Sunnyvale, Calif.) using a commercially available kit (Luciferase Substrate, Promega, Madison, Wis.).

[4] = system: ANF, BNP, αMHC and SkA mRNA; assay: Semi-quantitative RT-PCR of hypertrophy marker genes in cardiomyocytes; format: cell-based, rat; conditions: AdUIIR-infected cardiomyocytes; UII 100 nM, STO-609 250 ng/mL, 48 h
Description: as §1
Reverse Transcription and Semi-quantitative PCR—Cardiomyocytes were cultured in 100-mm dishes at a density of 1×10^5 cells/cm^2. 24 h post-plating, cells were treated as indicated. Following treatment, total RNA was isolated with TRIzol® reagent (Invitrogen) cDNA was synthesized using Super-Script™III (Invitrogen) per the manufacturer's instructions. Semi-quantitative PCR was then performed using gene-specific primers for UIIR, hypertrophy marker genes and glyceraldehyde-3-phosphate dehydrogenase (GAPDH) (Integrated DNA Technologies). Sequences of gene-specific primers were as follows: for UIIR, sense 5′-[…]-3′ (SEQ ID NO: 1) and antisense 5′-[…]-3′ (SEQ ID NO: 2); for ANF, sense 5′-[…]-3′ (SEQ ID NO: 3) and antisense 5′-[…]-3′ (SEQ ID NO: 4); for BNP sense, 5′-[…]-3′ (SEQ ID NO: 5) and anti-sense 5′-[…]-3′ (SEQ ID NO: 6); for αMHC sense, 5′-[…]-3′ (SEQ ID NO: 7) and antisense 5′-[…]-3′ (SEQ ID NO: 8); for SkA sense, 5′-[…]-3′ (SEQ ID NO: 9) and antisense 5′-[…]-3′ (SEQ ID NO: 10); and for GAPDH sense, 5′-[…]-3′ (SEQ ID NO: 11) and antisense 5′-[…]-3′ (SEQ ID NO: 12).

CaMKI = assay: Western blot of CaMKI phosphorylation (phospho-Thr178) in cardiomyocytes; format: cell-based, rat; conditions: AdUIIR-infected cardiomyocytes; UII with STO-609 for 2 or 5 min
Description: as §1
(§2) Western Blot Analysis and Immunoprecipitations. Cardiomyocytes were cultured in 100-mm dishes as described in the previous section. 24 h post-plating, cells were treated with UII and various pharmacological inhibitors as indicated. Following treatment, cells were lysed, and the relative abundance of UIIR, active p38 and ERK1/2, and active PKD was determined with commercially-available antibodies (Alpha Diagnostic, and Cell Signaling Technologies, Inc., respectively). The antibody for CaMKI was obtained from T. Soderling (Vollum Institute, Oregon Health Sciences University, Portland Oreg.).
UII stimulation results in the activation of CaMKI. […] One of the major downstream effectors of CaMKK is CaMKI. In addition to calcium/calmodulin, CaMKI requires phosphorylation by CaMKK to be active. To determine whether UII activates CaMKI, AdUIIR-infected cardiomyocyte cultures were treated with UII for various times up to 60 min, and whole cell lysates were collected and the phosphorylation status of CaMKI was measured by Western blot analysis by using an antibody that recognizes the active form of CaMKI (phospho-Thr178). […] CaMKI remained phosphorylated and active through 60 min of UII stimulation. Thus, UII activates CaMKI in cardiomyocytes.

p38 and ERK1/2 = assay: Western blot of p38 and ERK1/2 phosphorylation in cardiomyocytes; format: cell-based, rat; conditions: AdUIIR-infected cardiomyocytes; UII with STO-609 for 5 min
Description: as §1, §2
UII-dependent activation of p38 and ERK1/2 requires CaMKK. MAP kinases play an important role in mediating intracellular signaling. They are involved in cellular processes such as hypertrophy (7-10, 53, 54). More interesting, cross talk has been reported between the CaMKs and the MAPKs in neurons (11). There are three distinct families of MAP kinases (ERKs, p38s, and JNKs)(55). […] Next, whether UII stimulation of the MAP kinases was dependent on CaMKK was determined. AdUIIR-infected cardiomyocyte cultures were treated with UII for various times up to 60 min, and the phosphorylation status of p38 and ERK MAPKs were measured by Western blot analysis using antibodies that detect the active (phosphorylated) forms of these kinases.

PKD [5] = assay: Western blot of PKD phosphorylation (phospho-Ser744/748) in cardiomyocytes; format: cell-based, rat; conditions: AdUIIR-infected cardiomyocytes; UII with STO-609 for 2 or 5 min
Description: as §1, §2
UII activates PKD in a CaMKK dependent manner. A parallel pathway involving PKD phosphorylatea HDACs resulting in their 14-3-3-dependent translocation […] (19). […] Next, it was determined whether UII stimulation could activate PKD which would account for the UII-induced HDAC5 translocation […] possibly working in conjunction with CaMKI. To determine whether UII activates PKD, AdUIIR-infected cardiomyocyte cultures were treated with UII for various times up to 60 min, and whole cell lysates were collected and the phosphorylation status of PKD was measured by Western blot analysis by using an antibody that recognizes the active form of PKD (phospho-Ser744/748). […]

ERK1/2 = assay: Western blot of AngII or Et-1 stimulated ERK1/2 phosphorylation in cardiomyocytes; format: cell-based, rat; conditions: AngII 100 nM or Et-1 10 nM for 10 min; STO-609 250 ng/mL
Description: (§3) Whole cell lysates were subjected to Western blotting to determine the relative change in phosphorylation of ERK1/2 (FIG. 7A) or PKD (FIG. 7B). Western Blot Analysis and Immunoprecipitations. […] Following treatment, cells were lysed, and the relative abundance of UIIR, active p38 and ERK1/2, and active PKD was determined with commercially-available antibodies (Alpha Diagnostic, and Cell Signaling Technologies, Inc., respectively). The antibody for CaMKI was obtained from T. Soderling (Vollum Institute, Oregon Health Sciences University, Portland Oreg.).

PKD [6] = assay: Western blot of AngII or Et-1 stimulated PKD phosphorylation in cardiomyocytes; format: cell-based, rat; conditions: AngII 100 nM or Et-1 10 nM for 10 min; STO-609 250 ng/mL
Description: as §3

CaMKKa = CaMKKa (Rattus norvegicus, UniProt P97756); conditions: cited from earlier work
Sequence of CaMKKa (P97756 whole entry): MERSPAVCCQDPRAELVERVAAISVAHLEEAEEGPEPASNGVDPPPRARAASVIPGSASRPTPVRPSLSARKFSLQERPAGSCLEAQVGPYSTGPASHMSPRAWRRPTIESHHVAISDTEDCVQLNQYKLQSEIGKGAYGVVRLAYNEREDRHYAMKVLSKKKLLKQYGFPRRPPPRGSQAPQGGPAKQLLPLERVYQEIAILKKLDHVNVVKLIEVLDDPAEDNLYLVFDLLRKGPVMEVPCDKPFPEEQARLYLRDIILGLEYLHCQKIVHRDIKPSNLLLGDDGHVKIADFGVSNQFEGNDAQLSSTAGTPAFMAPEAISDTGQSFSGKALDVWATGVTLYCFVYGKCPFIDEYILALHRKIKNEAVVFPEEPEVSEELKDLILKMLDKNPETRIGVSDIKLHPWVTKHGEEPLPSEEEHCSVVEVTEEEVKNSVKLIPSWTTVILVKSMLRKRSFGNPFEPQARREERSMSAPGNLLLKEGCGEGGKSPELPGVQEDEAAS

CaM-KI = CaM-KI (Homo sapiens, UniProt Q14012); conditions: cited from earlier work
Sequence of CaM-KI (Q14012 whole entry, species assumed): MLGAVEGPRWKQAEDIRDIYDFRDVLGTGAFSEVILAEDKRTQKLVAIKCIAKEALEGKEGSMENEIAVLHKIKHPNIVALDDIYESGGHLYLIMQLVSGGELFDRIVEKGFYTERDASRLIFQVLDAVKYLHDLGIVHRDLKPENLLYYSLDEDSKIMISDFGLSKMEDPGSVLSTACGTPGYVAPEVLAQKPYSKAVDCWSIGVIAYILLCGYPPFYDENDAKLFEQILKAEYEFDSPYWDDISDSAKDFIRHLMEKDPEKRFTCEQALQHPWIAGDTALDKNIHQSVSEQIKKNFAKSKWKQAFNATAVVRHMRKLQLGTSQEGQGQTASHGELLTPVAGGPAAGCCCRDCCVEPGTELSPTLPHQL

CaM-KIV = target: T1, CaM-KIV (Homo sapiens, UniProt Q16566); conditions: cited from earlier work
T1 sequence (Q16566 1-473): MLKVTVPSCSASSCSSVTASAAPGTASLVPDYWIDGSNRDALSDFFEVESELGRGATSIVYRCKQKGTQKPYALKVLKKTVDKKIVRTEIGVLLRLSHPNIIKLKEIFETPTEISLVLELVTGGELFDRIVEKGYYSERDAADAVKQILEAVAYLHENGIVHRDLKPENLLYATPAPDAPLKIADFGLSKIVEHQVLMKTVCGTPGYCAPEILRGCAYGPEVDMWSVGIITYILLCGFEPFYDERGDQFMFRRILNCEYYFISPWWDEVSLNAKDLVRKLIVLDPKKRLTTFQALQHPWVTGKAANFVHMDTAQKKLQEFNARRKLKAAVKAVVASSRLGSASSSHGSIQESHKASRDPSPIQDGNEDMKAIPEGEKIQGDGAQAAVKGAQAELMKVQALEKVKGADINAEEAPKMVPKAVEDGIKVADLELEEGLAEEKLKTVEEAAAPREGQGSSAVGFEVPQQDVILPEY

PKA = conditions: cited from earlier work
PKC = conditions: cited from earlier work
p42 MAP kinase = p42 MAP kinase (Homo sapiens, UniProt P28482); conditions: cited from earlier work
Sequence of p42 MAP kinase (P28482 whole entry): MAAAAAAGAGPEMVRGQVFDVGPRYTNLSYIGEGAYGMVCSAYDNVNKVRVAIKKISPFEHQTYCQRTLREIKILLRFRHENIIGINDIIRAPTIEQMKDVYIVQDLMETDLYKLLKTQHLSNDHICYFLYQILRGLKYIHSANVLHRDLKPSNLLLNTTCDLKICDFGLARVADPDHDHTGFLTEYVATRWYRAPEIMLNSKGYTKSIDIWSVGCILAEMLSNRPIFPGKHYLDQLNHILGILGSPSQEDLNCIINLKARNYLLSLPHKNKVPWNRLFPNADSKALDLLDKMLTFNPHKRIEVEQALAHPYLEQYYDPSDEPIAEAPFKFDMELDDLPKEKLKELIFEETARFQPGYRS

Row | Compound | UIIR mRNA expression (UIIR) | UIIR protein expression (UIIR) | effect of inhibitor on UII activation of ANF, SkA and MEF2 reporter luciferase activity [1] | effect of inhibitor on UII-induced association of HDAC5 with 14-3-3β [2] | effect of inhibitor on CaMKI activation of ANF, SkA and MEF2 reporter luciferase activity [3] | also measured
1 | CNC[C@H](O)c1cccc(O)c1 [PE, phenylephrine] | up-regulated the UIIR messenger RNA | up-regulation of UIIR | – | – | – | –
2 | C[S+]([O-])c1ccc(-c2nc(-c3ccncc3)c(-c3ccc(F)cc3)[nH]2)cc1 (stereo not drawn) [SB203580] | – | – | completely blocked | no effect | completely blocked | –
3 | O=C(O)c1ccc2c3c1cccc3c(=O)n1c3ccccc3nc21 [STO-609, 7-H-Benz[de]benzimidazo[2,1-a]isoquinoline-7-one-3-carboxylic acid] | – | – | completely blocked; also recorded: UII was incapable of stimulating any of the reporters | loss of UII-induced association of HDAC5 with 14-3-3β; also recorded: decreased association of HDAC5 with 14-3-3β | – | effect of inhibitor on UII-stimulated hypertrophy marker gene mRNA expression (ANF, BNP, αMHC, SkA) [4]: UII was unable to stimulate hypertrophy marker gene expression over control; also recorded: UII was unable to stimulate the expression of ANF, BNP, αMHC or SkA; effect of inhibitor on UII-dependent activation (phosphorylation) of CaMKI (CaMKI): UII was unable to stimulate CaMKI; also recorded: inhibited; effect of inhibitor on UII-dependent phosphorylation of p38 and ERK1/2 (p38 and ERK1/2): UII was unable to stimulate p38 or ERK1/2; effect of inhibitor on UII-dependent phosphorylation of PKD (PKD [5]): UII was unable to stimulate PKD; effect of inhibitor on AngII and Et-1 activation of ERK1/2 (ERK1/2): CaMKK is required for AngII and Et-1 activation of ERK1/2 and PKD; effect of inhibitor on AngII and Et-1 activation of PKD (PKD [6]): CaMKK is required for AngII and Et-1 activation of ERK1/2 and PKD; IC50 (CaMKKa): 0.382 µM; IC50 (CaM-KI): > 31.8 µM; IC50 (CaM-KIV): > 31.8 µM; IC50 for PKA (PKA): > 10 µg/mL; IC50 for PKC (PKC): > 10 µg/mL; IC50 (p42 MAP kinase): > 31.8 µM
4 | N#CC(=C(/N)Sc1ccccc1N)/C(C#N)=C(\N)Sc1ccccc1N [U0126] | – | – | completely blocked | loss of UII-induced association of HDAC5 with 14-3-3β; also recorded: reduced UII-dependent association with 14-3-3β | completely blocked | –
5 | angiotensin II (DRVYIHPF; Angiotensin-2; UniProt P01019 25-32, looked up) [AngII, humoral hypertrophic agonist acting on the Gq-coupled angiotensin II receptor] | up-regulated the UIIR messenger RNA | up-regulation of UIIR | – | – | – | –
